Results taken from publication PMC5766630, “Non-estrogenic Xanthohumol Derivatives Mitigate Insulin Resistance and Cognitive Impairment in High-Fat Diet-induced Obese Mice” (Scientific Reports, 2018).

What was measured:
MCF-7 cells = assay: MCF-7 cell proliferation, sulforhodamine B (SRB) assay; type: cell-based, human; settings: 0.001–1 µM, 48 h exposure, vs vehicle control
Method: The SRB assay has been used to study the effects of phytochemicals such as XN, DXN and 8-PN on cell proliferation of various cancer cell lines, including MCF-7 cells[91],[92]. SRB is a dye that binds to cellular proteins of adherent cells and the absorbance readings are a measure of the number of viable cells (cell mass) attached to the culture plate after incubation with the test compounds (samples) in comparison with vehicle control cells. The cell mass is then extrapolated as a measurement of cell viability and cell proliferation. Increased proliferation of MCF-7 cells is one of the measures of estrogenicity of phytochemicals. MCF-7 cells were plated at 10,000 cells/well in 96-well plates in DMEM medium containing 10% charcoal-stripped FBS and antibiotics. […] After incubation with the test compounds for 48 h, the cell culture medium was removed from each well of the 96-well plate and the cells were fixed for 1 h with 10% trichloroacetic acid. The cells on the plate were washed five with distilled water, air-dried, and then stained with SRB dye (0.4% w/v in 1% acetic acid). Excess dye was removed by washing the plate five times with 1% acetic acid. The plates were air-dried and the adsorbed dye was solubilized in 10 mM Tris buffer for 5 min on a shaker before reading the optical density (OD) at 565 nm. The percentage cell viability/proliferation was calculated as follows: (ODSample−ODZeroblank)/(ODControl−ODZeroblank)×100. Mean values and the coefficient of variation (CV) from six replicate wells were calculated and a one-way ANOVA was used to compare statistical differences between treated and control cells, with p < 0.05 as the level of significance.

[1] = molecular target: T1, full-length purified human estrogen receptor ERβ (Homo sapiens, UniProt Q92731); assay: ERβ competitive radiometric binding assay; settings: for RBA ERβ (relative binding affinity): RBA = IC50[estradiol]/IC50[compound] × 100, estradiol = 100, 2 nM [3H]-estradiol tracer, 18–24 h at 0 °C
T1 construct: full-length purified human estrogen receptors ERα and ERβ
T1 sequence (Q92731 whole entry): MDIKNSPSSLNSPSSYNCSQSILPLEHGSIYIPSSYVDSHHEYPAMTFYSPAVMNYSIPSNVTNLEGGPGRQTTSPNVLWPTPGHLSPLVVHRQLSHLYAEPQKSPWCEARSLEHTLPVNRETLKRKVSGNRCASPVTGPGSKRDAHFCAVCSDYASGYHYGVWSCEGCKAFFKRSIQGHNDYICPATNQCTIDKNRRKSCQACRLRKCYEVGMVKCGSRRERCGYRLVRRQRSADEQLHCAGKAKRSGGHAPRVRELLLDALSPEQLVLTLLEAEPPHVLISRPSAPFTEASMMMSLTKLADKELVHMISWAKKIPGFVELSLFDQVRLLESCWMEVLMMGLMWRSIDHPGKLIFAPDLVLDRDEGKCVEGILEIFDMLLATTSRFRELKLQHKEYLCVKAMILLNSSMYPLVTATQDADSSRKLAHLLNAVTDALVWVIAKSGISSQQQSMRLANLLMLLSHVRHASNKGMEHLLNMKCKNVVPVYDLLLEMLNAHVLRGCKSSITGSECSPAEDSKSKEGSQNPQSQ
Method: . The receptors and ligands were incubated for 18–24 h at 0 °C and then the receptor–ligand complexes separated using hydroxyapatite (BioRad, Hercules, CA, USA). […]

[2] = system: progesterone receptor (PGR) expression in MCF-7 cells; assay: Progesterone receptor (PGR) gene expression in MCF-7 cells, real-time PCR; type: cell-based, human; settings: 20 h; estradiol 1 and 10 nM; 8-PN, XN, DXN, TXN 0.2, 1 and 5 μM; vs 0.1% ethanol
Method: MCF-7 cells (American Type Culture Collection, Manassas, VA, USA) were cultured in DMEM (Corning Life Sciences, Tewksbury, MA, USA) supplemented with 10% fetal bovine serum (Corning Life Sciences) and 100 μg/ml penicillin/streptomycin (Invitrogen, Carlsbad, CA, USA). For estrogen-free experiments, cells were seeded in phenol-free DMEM (Gibco/Life Technologies, Grand Island, NY, USA) plus 10% charcoal-dextran-treated FBS (Corning Life Sciences) at 5 × 10^5 cells/well of a 6-well plate. […] Total RNA was isolated using TRIzol (Invitrogen) and converted into cDNA using iScript (Bio-Rad, Hercules, CA, USA). Real-time PCR was performed in triplicate on a CFX-96 (Bio-Rad) using primer-probe assays (IDT Technologies, Coralville, IA, USA) and SsoAdvanced Universal Probes Supermix (Bio-Rad) to quantify progesterone receptor (PGR) and GAPDH levels. The ratio of PGR to GAPDH was calculated as 2^−ΔCt PGR/2^−ΔCt GAPDH. Data were analyzed using a one-way ANOVA (p < 0.05 was considered statistically significant) and a post-hoc Tukey’s multiple comparison test. Induction of the progesterone receptor in MCF-7 cells is one of the indices of estrogenicity of flavonoids such as 8-PN[94].

[3] = molecular target: T2, full-length purified human estrogen receptor ERα (Homo sapiens, UniProt P03372); assay: ERα competitive radiometric binding assay; settings: for RBA ERα (relative binding affinity): RBA = IC50[estradiol]/IC50[compound] × 100, estradiol = 100, 2 nM [3H]-estradiol tracer, 18–24 h at 0 °C
T2 construct: full-length purified human estrogen receptors ERα and ERβ
T2 sequence (P03372 1-595): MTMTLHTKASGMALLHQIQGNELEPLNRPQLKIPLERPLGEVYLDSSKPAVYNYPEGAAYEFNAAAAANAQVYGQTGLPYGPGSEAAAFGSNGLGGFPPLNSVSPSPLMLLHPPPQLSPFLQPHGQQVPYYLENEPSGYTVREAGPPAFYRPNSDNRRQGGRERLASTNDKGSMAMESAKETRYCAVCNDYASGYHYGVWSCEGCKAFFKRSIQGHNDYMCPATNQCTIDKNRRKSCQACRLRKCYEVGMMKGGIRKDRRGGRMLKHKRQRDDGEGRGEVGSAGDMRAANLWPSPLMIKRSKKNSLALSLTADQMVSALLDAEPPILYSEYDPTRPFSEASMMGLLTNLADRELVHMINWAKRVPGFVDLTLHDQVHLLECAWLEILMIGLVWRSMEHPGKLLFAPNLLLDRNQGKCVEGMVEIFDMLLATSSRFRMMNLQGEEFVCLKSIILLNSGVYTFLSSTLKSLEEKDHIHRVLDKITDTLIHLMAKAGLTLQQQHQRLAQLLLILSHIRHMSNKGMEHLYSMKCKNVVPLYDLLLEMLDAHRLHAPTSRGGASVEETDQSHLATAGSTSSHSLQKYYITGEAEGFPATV
Method: The receptors and ligands were incubated for 18–24 h at 0 °C and then the receptor–ligand complexes separated using hydroxyapatite (BioRad, Hercules, CA, USA).

C2C12 cells = assay: Seahorse OCR and ECAR measurements (mitochondrial uncoupling); type: cell-based, mouse; settings: oligomycin 1 μM, C2C12 cells
Method: OCR and ECAR measurements were performed with a Seahorse XF 24 Analyzer (Agilent Technologies, Inc., Santa Clara, CA, USA). C2C12 cells were plated in culture medium at a density of 40,000 cells per well in a 24-well plate. The cells were then allowed to adhere for 24 h (37 °C, 5% CO2). Prior to the assay, the cells were washed with freshly prepared running medium consisting of Seahorse XF Assay medium (Agilent Technologies, Inc., Santa Clara, CA, USA), 10 mM glucose and 1 mM sodium pyruvate. The pH of the medium was adjusted to 7.4 with 1 M NaOH. The cells were then equilibrated for one hour at 37 °C without CO2. […] To overcome this problem, the test compounds were first dissolved in ethanol and the resulting solution was diluted 100-fold in treatment medium (9 parts XF media and 1 part 10% FBS media) which was added directly to cells. The treatment medium contained 1% FBS and after a further 10-fold dilution into the media in wells, only 0.1% FBS was present during OCR and ECAR measurements. The final concentrations in the wells were: 1 μM for oligomycin, and 5 μM for XN, DXN or TXN. The concentration of oligomycin and the cell density used were selected based on preliminary experiments. Ethanol was added to the control wells not to exceed a final concentration of 0.1% (vehicle control). OCR and ECAR were measured at 9-min intervals.
Seahorse data: to show a consistent baseline, OCR values (in pmol/min/mg protein) and ECAR values (in mpH/min/mg protein) for each value were divided, prior to statistical analysis, by the average of the four pre oligomycin treatment values (0, 8, 17, and 25 min) for the corresponding well and are shown as % pre oligomycin values. To account for repeated measures within wells over time, we utilized a repeated-measures-in-time design using ANOVA procedures in PROC MIXED (SAS). Fixed effects in the model were treatment (control, 5 μM XN, 5 μM DXN, and 5 μM TXN for the compound study), time (0, 8, 17, 25, 34, 43, 52, 60, 69, 78, 86, and 95 min), and their interaction. The random effect was the experiment (5 experiments for the compound study). To account for repeated measures within wells over time, a first order homogeneous variance-covariance matrix [AR(1)] was fitted for each well. Using the ESTIMATE statement, a priori contrasts were constructed by comparing the changes in compound treated cells from the last two time points prior to compound treatment (average 52 and 60 min) to the changes in control cells during the same time-period. This was carried out for each compound and dosage for 69, 78, 86, and 95 min separately and for all four time points combined. Results are shown in the text and the graphs as least squares means and their corresponding SEM (standard error of mean). […]

[4] = design: method as in PMID 17517853, PMID 20154334; settings: meta-analysis of 42 trials, p = 0.03; cited from earlier work

Structure (SMILES)	RBA ERβ (relative binding affinity) [1]	induction of PGR expression [2]	RBA ERα (relative binding affinity) [3]	other results
CC(C)=CCc1c(O)cc(O)c2c1O[C@H](c1ccc(O)cc1)CC2=O [8-PN, 8-prenylnaringenin, reference compound]	2.42 ± 0.62	statistically significant induction	0.686 ± 0.18	MCF-7 cell viability/proliferation at low concentrations (MCF-7 cells): induced cell proliferation; fold greater affinity for ERβ compared to XN, DXN, and TXN [1]: > 100 fold; fold greater affinity for ERα compared to XN, DXN, and TXN [3]: > 100 fold
COc1cc(O)c(CC=C(C)C)c2c1C(=O)CC(c1ccc(O)cc1)O2 (centres unmarked) [IX, Isoxanthohumol, reference compound]	0.019 ± 0.004		0.0020 ± 0.0002	
C[C@]12CC[C@@H]3c4ccc(O)cc4CC[C@H]3[C@@H]1CC[C@@H]2O [estradiol, 17β-estradiol, reference compound]		statistically significant induction		
CC[C@H]1/C=C/C=C/C[C@@H](C)[C@H](O)[C@@](C)(O)C(=O)[C@@H](C)[C@H](O)[C@@H](C)C(=O)[C@@H](C)[C@H](O)[C@@H](C)/C=C/C(=O)O[C@@H]2[C@H](C)[C@H](CC1)O[C@]1(CC[C@H](C)[C@H](C[C@@H](C)O)O1)[C@H]2C [oligomycin, reference compound]				Increase in ECAR (C2C12 cells): 1.6 fold
CN(CCOc1ccc(CC2SC(=O)NC2=O)cc1)c1ccccn1 (centres unmarked) [rosiglitazone]				Increased risk of heart attack [4]: 43%
